Reference: US20150216865A1, “METHODS OF TREATING A BRUTON'S TYROSINE KINASE DISEASE OR DISORDER” (Celgene Avilomics Research, Inc., priority 2012, published 2015)
“Also recorded” adds a separate entry of the source. Marks after values point to notes of the source that are not given here.

What was measured:
[1] = target: T1, Btk (Homo sapiens, UniProt Q06187); assay: Immunoblot of Btk signaling in α-IgM stimulated Ramos cells; assay type: cell-based
Protocol: (§1) Following incubation, cells were centrifuged and resuspended in 100 μL of serum-free RPMI and BCR was stimulated with addition of 5 μg/mL α-human IgM. […] Membranes were scanned on a LiCor Odyssey Scanner using infrared fluorescence detection.

[2] = target: T1, Btk; assay: Btk target site occupancy ELISA, Ramos cells; assay type: cell-based; settings: one hour, read-out: EC90 of Btk occupancy (concentration required for 90% occupancy)
Protocol: (§2) Btk Target Site Occupancy ELISA: An ELISA method for the detection of free uninhibited Btk in mouse, rat, dog, monkey, and human lysates was developed at Celgene Avilomics Research and a validation of this method in human B cell lysate was performed by a CLIA Certified laboratory (Cambridge Biomedical Laboratories, Boston, Mass.) The parameters that were assessed included: accuracy, linearity, dilution, precision (intra and inter-assay), stability, reference range, freeze-thaw cycles, reportable range, specificity, sensitivity, and carryover. […] Standards and samples were transferred to a streptavidin-coated 96-well ELISA plate and mixed while shaking for 1 h at room temperature. […] After wash, goat α-mouse-HRP (1:5000 dilution in PBS+0.05% Tween-20+0.5% BSA) was added and incubated for 1 h at room temperature. The ELISA was developed with addition of tetramethyl benzidine (TMB) followed by Stop Solution and read at OD 450 nm.

[3] = target: T1, Btk; assay: Immunoblot of Btk kinase activity in human primary naïve B cells; assay type: cell-based; settings: 10 nM
Protocol: as §1

[4] = target: T1, Btk; assay: Btk target site occupancy ELISA, human primary naïve B cells; assay type: cell-based; settings: 10 nM
Protocol: as §2

[5] = test system: naïve human B-cells; assay: B lymphocyte proliferation (3H-thymidine incorporation); assay type: cell-based; settings: B-cell; α-human IgM stimulated
Protocol: B Lymphocyte Proliferation (^3H-Thymidine Incorporation): A suspension of resting purified naïve human B-cells isolated by negative selection (MACS reagent 130-091-150) in RPMI was prepared at 0.4-0.5×10^6 cells per mL. […] Experiments were performed in triplicate.

[6] = target: T2, Btk (Mus musculus, UniProt P35991); assay: Btk protein resynthesis in mice (spleen covalent probe ELISA); assay type: in vivo
T2 construct: from tissue; host or cells: mouse spleen
T2 sequence (P35991 whole entry): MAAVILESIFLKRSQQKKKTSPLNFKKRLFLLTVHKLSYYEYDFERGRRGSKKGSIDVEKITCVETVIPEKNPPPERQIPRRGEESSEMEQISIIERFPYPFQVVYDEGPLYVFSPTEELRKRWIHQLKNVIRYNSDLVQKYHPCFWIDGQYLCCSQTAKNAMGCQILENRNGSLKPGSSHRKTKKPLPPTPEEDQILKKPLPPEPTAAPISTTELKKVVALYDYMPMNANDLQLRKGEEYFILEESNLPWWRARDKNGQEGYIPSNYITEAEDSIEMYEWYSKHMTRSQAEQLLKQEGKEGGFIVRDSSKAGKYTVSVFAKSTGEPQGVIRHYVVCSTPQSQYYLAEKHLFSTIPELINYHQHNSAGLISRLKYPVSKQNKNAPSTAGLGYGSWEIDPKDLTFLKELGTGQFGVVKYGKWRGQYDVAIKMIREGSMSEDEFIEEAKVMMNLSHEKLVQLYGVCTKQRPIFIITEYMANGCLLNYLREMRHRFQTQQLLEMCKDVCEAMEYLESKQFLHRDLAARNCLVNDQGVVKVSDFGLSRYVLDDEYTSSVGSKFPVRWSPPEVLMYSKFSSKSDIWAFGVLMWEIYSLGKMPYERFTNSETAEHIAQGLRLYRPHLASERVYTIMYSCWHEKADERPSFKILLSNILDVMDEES
Protocol: Spleen Homogenization: Spleens were harvested from mice, frozen immediately in liquid nitrogen and stored at −80° C. To generate spleen lysates, each spleen was sliced in half and lysed using a Precellys 24 Bead Homogenizer in 500 μL of BioRad Bio-Plex Lysis Buffer plus protease inhibitors. Supernatant was transferred to a fresh microfuge tube and stored frozen at −80° C. until analysis.
as §2
Btk Protein Resynthesis in Mice. […] Spleens were homogenized and assayed on the covalent probe ELISA for Btk target site occupancy and compound concentration in serum was measured.

[7] = Plasma level of compound in mice of the Btk resynthesis experiment; assay type: in vivo, mouse; settings: single oral 50 mg/kg, n=6
Protocol: Btk Protein Resynthesis in Mice. […] At 4, 8, 16, 24, 48, 72, and 96 hours after treatment, spleens and serum were harvested (n=6 mice/timepoint). Spleens were homogenized and assayed on the covalent probe ELISA for Btk target site occupancy and compound concentration in serum was measured.

[8] = test system: collagen-induced arthritis Dba1 mouse model; assay: Established collagen induced arthritis model (clinical score, histopathology, body weight); assay type: in vivo
Protocol: Established Collagen Induced Arthritis Model: Experiments were carried out at Bolder Biopath, Boulder, Colo. All experiments were carried out in compliance with regulations of the Institutional Animal Care and Use Committee and were conducted in accordance with principles and procedures dictated by the highest standards of humane animal care. […] On study days 25-27, onset of arthritis occurred, and mice were randomized into treatment groups (10/treatment group, 4/group for normal). […] Randomization into each group was done after swelling was obviously established in at least one paw, and attempts were made to assure approximately equal mean scores across the groups at the time of enrollment. […] Treatment continued daily (QD at 24 h intervals) through arthritis day 14.

[9] = test system: semi-established CIA Dba1 mice; assay: Semi-established collagen induced arthritis (CIA) model; assay type: in vivo, mouse; settings: for disease incidence: study day 33
Protocol: Semi-Established Collagen Induced Arthritis (CIA) Arthritis Model. Experiments were carried out at Bolder Biopath, Boulder, Colo. All experiments were carried out in compliance with regulations of the Institutional Animal Care and Use Committee and were conducted in accordance with principles and procedures dictated by the highest standards of humane animal care. Dba1 mice were injected at the base of the tail with 150 μL of Freund's Complete Adjuvant (Sigma) containing bovine type II collagen (Elastin Products, Owensville, Mo.) (2 mg/ml) on day 0 and again on day 21. Mice were randomized into treatment groups on study day 21, and treatment was initiated. Treatment continued daily (3 mg/kg, 10 mg/kg or 30 mg/kg QD at 24 hour intervals) through day 33, and mice were terminated on day 33 (animals 1-6) or day 34 (animals 7-12). Onset of arthritis occurred between study days 21 and 34. Clinical scores were assessed for each of the paws on study days 21-34 using the following scoring system: 0=normal, 1=one hind or fore paw joint affected or minimal diffuse erythema and swelling, 2=two hind or fore paw joints affected or mild diffuse erythema and swelling, 3=three hind or fore paw joints affected or moderate diffuse erythema and swelling, 4=marked diffuse erythema and swelling or =four digit joints affected, 5=severe diffuse erythema and severe swelling entire paw, unable to flex digits. Spleens and plasma were harvested at necropsy (day 33 for animals 1-6 and day 34 for animals 7-12) and paws were removed and fixed in formalin for histopathological analysis.

[10] = test system: PGPS 10S-induced arthritis in rats; assay: PGPS 10S-induced model of chronic arthritis; assay type: in vivo, rat
Protocol: PGPS 10S-Induced Model of Chronic Arthritis. Rats were injected intraperitoneal with […] of animal body weight, to induce arthritis. Left and right hind limb lateral ankle widths of each rat were measured three times each prior to PG-PS 10S administration and on day 5. The first inflammatory response peak for both right and left ankles of PG-PS rats was reached on day 4. Rats were assigned to one of five treatment groups. […] Another group was treated with 0.3 mg/kg QD dexamethasone on the 3rd day post first peak (day 7) through day 22.

[11] = target: T1, Btk; assay: Btk biochemical kinase assay; settings: read-out: IC50apparent, Btk kinase activity
[12] = target: EGFR (Homo sapiens, UniProt P00533); assay: Biochemical kinase assay, EGFR (probe selectivity); settings: read-out: IC50app EGFR
EGFR, sequence (P00533 25-1210): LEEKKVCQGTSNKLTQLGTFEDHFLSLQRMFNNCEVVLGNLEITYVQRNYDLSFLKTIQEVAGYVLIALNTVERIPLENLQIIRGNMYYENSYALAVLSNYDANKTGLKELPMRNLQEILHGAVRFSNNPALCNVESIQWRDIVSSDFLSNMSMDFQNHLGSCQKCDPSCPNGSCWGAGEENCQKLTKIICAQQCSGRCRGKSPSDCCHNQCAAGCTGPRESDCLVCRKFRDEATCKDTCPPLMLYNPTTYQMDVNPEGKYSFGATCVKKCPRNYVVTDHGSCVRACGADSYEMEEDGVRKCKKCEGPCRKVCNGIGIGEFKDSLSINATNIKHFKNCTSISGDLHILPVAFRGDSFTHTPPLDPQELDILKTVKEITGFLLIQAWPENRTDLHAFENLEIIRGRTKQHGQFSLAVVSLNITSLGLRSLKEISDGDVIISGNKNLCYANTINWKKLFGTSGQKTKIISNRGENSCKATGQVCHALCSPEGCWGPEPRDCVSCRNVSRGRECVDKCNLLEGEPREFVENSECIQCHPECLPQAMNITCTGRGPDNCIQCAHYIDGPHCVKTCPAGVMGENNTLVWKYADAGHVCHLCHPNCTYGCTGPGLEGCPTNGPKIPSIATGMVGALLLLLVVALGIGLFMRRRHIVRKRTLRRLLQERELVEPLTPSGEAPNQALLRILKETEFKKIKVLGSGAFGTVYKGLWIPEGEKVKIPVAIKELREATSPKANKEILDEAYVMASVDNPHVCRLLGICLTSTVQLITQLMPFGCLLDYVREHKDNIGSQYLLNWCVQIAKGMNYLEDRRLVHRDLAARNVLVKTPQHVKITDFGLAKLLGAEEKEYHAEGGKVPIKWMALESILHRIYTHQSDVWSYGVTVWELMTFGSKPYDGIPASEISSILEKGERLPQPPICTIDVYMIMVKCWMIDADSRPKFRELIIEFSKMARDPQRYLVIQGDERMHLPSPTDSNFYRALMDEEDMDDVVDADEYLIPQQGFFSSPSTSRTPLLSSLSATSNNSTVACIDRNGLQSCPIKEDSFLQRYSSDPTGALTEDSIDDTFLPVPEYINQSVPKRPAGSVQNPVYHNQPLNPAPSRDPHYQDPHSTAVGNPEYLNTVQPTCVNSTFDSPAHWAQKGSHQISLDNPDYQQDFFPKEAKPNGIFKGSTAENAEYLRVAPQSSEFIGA

[13] = target: Syk (Homo sapiens, UniProt P43405); assay: Biochemical kinase assay, Syk (probe selectivity); settings: read-out: IC50app Syk
[14] = target: Lyn (Homo sapiens, UniProt P07948); assay: Biochemical kinase assay, Lyn (probe selectivity); settings: read-out: IC50app Lyn
Lyn, sequence (P07948 whole entry): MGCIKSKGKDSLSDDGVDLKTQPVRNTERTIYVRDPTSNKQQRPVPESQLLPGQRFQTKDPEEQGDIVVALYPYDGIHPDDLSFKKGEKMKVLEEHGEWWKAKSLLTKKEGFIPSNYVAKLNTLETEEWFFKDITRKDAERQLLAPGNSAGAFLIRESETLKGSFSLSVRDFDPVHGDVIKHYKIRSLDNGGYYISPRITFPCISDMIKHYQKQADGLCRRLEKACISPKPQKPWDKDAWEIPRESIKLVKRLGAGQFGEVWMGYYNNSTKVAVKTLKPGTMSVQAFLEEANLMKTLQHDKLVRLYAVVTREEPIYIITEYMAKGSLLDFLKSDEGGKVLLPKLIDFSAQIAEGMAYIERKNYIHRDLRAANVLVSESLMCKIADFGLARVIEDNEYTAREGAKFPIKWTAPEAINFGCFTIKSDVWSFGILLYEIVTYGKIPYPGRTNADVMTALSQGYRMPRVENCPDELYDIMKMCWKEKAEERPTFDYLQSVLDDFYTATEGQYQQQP

[15] = test system: KC; assay: Inflammatory chemokine and cytokine analysis in CIA mice, KC; assay type: in vivo, mouse; settings: dexamethasone group
Description: (§3) Inflammatory Chemokine and Cytokine Analysis: At the termination of the CIA study, mice were sacrificed and blood was harvested via cardiac punch using EDTA as an anticoagulant. […] Levels of various mouse cytokines in plasma were quantified using Bioplex® Suspension Array System according to manufacturer's instruction (BioRad, mTNFa (171-G5023M), mIL-6 (171-G5007M), mKC (171-G5018M), mIFNg (171-G5017M), mIL-17 (Z60-00006Z2), mIL-1β (171-G5002M), mMCP-1 (171-G5019M).

[16] = test system: IL-6; assay: Inflammatory chemokine and cytokine analysis in CIA mice, IL-6; assay type: in vivo, mouse; settings: dexamethasone group
Description: as §3

[17] = test system: TNF-a; assay: Inflammatory chemokine and cytokine analysis in CIA mice, TNF-a; assay type: in vivo, mouse; settings: dexamethasone group
Protocol: Inflammatory Chemokine and Cytokine Analysis: At the termination of the CIA study, mice were sacrificed and blood was harvested via cardiac punch using EDTA as an anticoagulant. Following centrifugation, serum was diluted 1:4 with a mouse serum diluents kit (BioRad cat#171-305004). Levels of various mouse cytokines in plasma were quantified using Bioplex® Suspension Array System according to manufacturer's instruction (BioRad, mTNFa (171-G5023M), mIL-6 (171-G5007M), mKC (171-G5018M), mIFNg (171-G5017M), mIL-17 (Z60-00006Z2), mIL-1β (171-G5002M), mMCP-1 (171-G5019M).

T1 sequence (Q06187 whole entry): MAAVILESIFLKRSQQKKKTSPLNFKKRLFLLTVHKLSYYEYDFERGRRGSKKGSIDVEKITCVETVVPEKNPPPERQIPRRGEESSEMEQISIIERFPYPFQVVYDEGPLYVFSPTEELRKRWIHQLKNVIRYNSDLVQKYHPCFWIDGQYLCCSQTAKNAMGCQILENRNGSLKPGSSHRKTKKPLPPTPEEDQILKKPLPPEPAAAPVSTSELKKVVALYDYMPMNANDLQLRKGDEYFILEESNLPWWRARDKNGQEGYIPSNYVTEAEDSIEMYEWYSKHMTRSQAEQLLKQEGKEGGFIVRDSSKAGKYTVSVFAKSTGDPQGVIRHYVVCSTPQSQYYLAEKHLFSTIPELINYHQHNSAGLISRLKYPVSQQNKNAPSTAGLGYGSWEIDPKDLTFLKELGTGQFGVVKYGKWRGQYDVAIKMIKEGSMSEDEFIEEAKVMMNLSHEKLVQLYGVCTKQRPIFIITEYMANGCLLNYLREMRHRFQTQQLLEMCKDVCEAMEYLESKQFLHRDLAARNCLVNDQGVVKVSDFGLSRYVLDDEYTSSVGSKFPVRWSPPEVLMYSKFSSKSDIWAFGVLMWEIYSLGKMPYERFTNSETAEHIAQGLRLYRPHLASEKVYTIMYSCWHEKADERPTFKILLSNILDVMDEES

Which “concentration at which 90% of Btk activity was inhibited” value [1] does the source give for C=CC(=O)Nc1cccc(Nc2nc(Nc3ccc(OCCOC)cc3)ncc2F)c1 [Compound 1, N-(3-(5-fluoro-2-(4-(2-methoxyethoxyl)phenylamino)pyrimidin-4-ylamino)phenyl)acrylamide] here?
Its value is 35 nM.

And the “activation of the downstream kinase Erk” value ([1]; anti-IgM)?
Its value is “potently inhibited”.

And the “phosphorylation of Btk on Tyr551” value ([1]; anti-IgM)?
The value was “no effect”.

And the “phosphorylation of the Btk substrate PLCγ2” value ([1]; anti-IgM)?
The value was “potently inhibited”.

And the EC90 [2]?
The EC90 was 39 nM.

And the inhibition at 0.01 µM [3]?
Its inhibition at 0.01 µM is 42%.

And the receptor occupancy at 0.01 µM [4]?
Its receptor occupancy at 0.01 µM is 37%.

What about the EC50 [5] of the same molecule?
Its EC50 is 3 nM.

What about the “persistence of action on Btk (occupancy) after circulating compound has disappeared” value ([6]; mice, single oral 50 mg/kg) of the same molecule?
Its value is over 12 h.

And the “new Btk protein, % of pre-dose Btk protein levels” value ([6]; mouse spleen, 24 hours after single oral 50 mg/kg)?
The value was 43%.

And the “new Btk protein, % of pre-dose Btk protein levels” value ([6]; mouse spleen, 48 hours after single oral 50 mg/kg)?
Its value is 71%.

What about the “time for Btk protein to recover to 50% pre-dose levels” value ([6]; mouse spleen, single oral 50 mg/kg) of the same molecule?
The value was 24 to 48 h.

And the “compound concentration in plasma at the 8 hour timepoint” value [7]?
Its value is “undetectable in 5/6 mice; also recorded: absent in 5 of 6 animals”.

And the “inhibition of histopathologic signs of disease (six joints)” value ([8]; 10 mg/kg)?
Its value is 87%.

What about the disease incidence ([9]; 3 mg/kg QD) of the same molecule?
The disease incidence was 50%.

What about the disease incidence ([9]; 10 mg/kg QD) of the same molecule?
Its disease incidence is 17%.

And the disease incidence ([9]; 30 mg/kg QD)?
Its disease incidence is 8%.

And the “body weight loss associated with severity of disease” value ([9]; all three dose levels)?
The value was “prevented the loss in body weight”.

What about the “spleen enlargement vs vehicle” value ([10]; 10 mg/kg QD, 30 mg/kg QD and 30 mg/kg QOD) of the same molecule?
The value was “significantly prevented spleen enlargement”.

And the “PGPS 10S-induced arthritis” value ([10]; 3, 10, 30 mg/kg QD, 30 mg/kg QOD)?
Its value is “inhibited PGPS 10S-induced arthritis in a dose-dependent manner”.

What about the “right and left lateral ankle width vs diseased group” value ([10]; PGPS rats, day 7 through day 22) of the same molecule?
Its value is “significantly lower”.

Which IC50 [11] does the source give for C=CC(=O)Nc1cccc(Nc2nc(Nc3cccc(OCCCNC(=O)CCCC(=O)NCCCOCCOCCOCCCNC(=O)CCCC[C@@H]4SC[C@@H]5NC(=O)N[C@@H]54)c3)ncc2C)c1 [Compound 2] here?
Its IC50 is 0.5 nM.

What about the IC50 [12] of the same molecule?
Its IC50 is over 25 nM.

What about the IC50 [13] of the same molecule?
The IC50 was over 1000 nM.

And the IC50 [14]?
The IC50 was over 3500 nM.

With C[C@@H]1C[C@H]2[C@@H]3CCC4=CC(=O)C=C[C@]4(C)[C@@]3(F)[C@@H](O)C[C@]2(C)[C@@]1(O)C(=O)CO [dexamethasone, reference compound] as the molecule, how does the “inhibition of histopathologic signs of disease (six joints)” value ([8]; dexamethasone positive control (0.2 mg/kg)) read?
The value was 82%.

What about the KC mean [15] of the same molecule?
Its KC mean is 52.9 pg/mL.

And the IL-6 mean [16]?
Its IL-6 mean is 9.8* pg/mL.

And the TNF-a mean [17]?
Its TNF-a mean is 131.0 pg/mL.

And the disease incidence ([9]; dexamethasone group)?
Its disease incidence is 0%.
